Consider two compounds from patent US8101408B2, “Insecticidal extract from legume plants and method of preparing the same” (Her Majesty the Queen in right of Canada, as represented by …, priority 2005, dated 2012).

Values joined by “and” are separate entries in the source; they are usually repeats but may differ in a detail not shown here. Equal values may be shown once. “Also recorded” adds a separate entry of the source. Read-outs that look alike come from different tables or passages of the source.

Data set [1] has as its system Sitophilus oryzae. Nature of the data set: Flour disk antifeedant bioassay with rice weevils (food consumption as % of control; EC50/EC90 for feeding reduction). It counts as in vivo. Particulars: for food consumption in the rice weevil bioassay: RPC isolate, disks from one-half the usual amount of flour (100 mg). Here is the method:
The bioactivity of separated fractions was determined primarily by a flour disk antifeedant bioassay with the rice weevil (Sitophilus oryzae), an insect pest of stored products.
A glass column (1.2 cm internal diameter×20.5 cm length) equipped with a solvent reservoir and stopcock was filled with silica gel (Mallinckrodt SilicAR cc-7) using a slurry of the silica gel in chloroform (Merck OmniSolv containing 1% ethanol). The top of the bed was protected with sea sand. C8 powder (130 mg) was applied to the column, after mixing with silica gel, as a 1.25 cm band. Using a slight positive air pressure to maintain reasonable flow rates, the column was eluted with chloroform (75 ml) then with 75 ml volumes of various mixtures of chloroform and methanol followed by pure methanol (Table 1). The column was eluted with more methanol (75 ml) and finally with two additional volumes of methanol (250 ml each). […] A final evaporation was performed with a Savant apparatus (43° C.). The tubes were re-weighed, capped and transferred to the bioassay laboratory. Each sample was dissolved in 70% ethanol (0.5 ml) and 0.2 ml of that solution was added to the wheat flour (200 mg) for preparation of the disks. […] Control disks were prepared with 0.2 ml of 70% ethanol.
A test insecticidal compound is incorporated into flour disks. […] A typical dose in many of the above examples is 1.6 milligram/200 milligram flour. Wheat flour is typically used.
(§1) Reduction in feeding activity elicited by the experimental samples was compared to food consumption of untreated controls, obtained by weighing the disks before and after exposure to insects and expressed as percent feeding relative to the control. Bioassay can also include insecticidal measurements (lethality with rice weevil).
(§2) Flour disks (ca. 0.1 g/disk) were weighed before and after exposure to the insects. […] Antifeedant activity was determined by expressing consumption of treated disks as a percentage of control disks (70% ethanol). Positive controls using the same C8 extract were run with each bioassay.
The estimate and confidence limits are the values of X where the line Y=Yo crosses the regression line and its upper and lower confidence curves, respectively. The formulae can be expressed in terms of outputs from the regression analysis. Let a and b be the estimates of the intercept and slope, MSE the mean square error, n the number of observations, t the (2-sided) critical value of t with n−2 degrees of freedom, V(b) the variance (standard error squared) of b and D=b^2−t^2V(b)). Then the estimate of X is Xo=(Yo−a)/b and the confidence limits for X are X0+t^2V(b)(Y0− Y)/bD±H where H^2=t^2└D·MSE/n+V(b)(Y0− Y)^2┘/D^2. The interval is not symmetric about Xo. […]

The test system of data set [2] is Sitophilus oryzae. Particulars: sample from a Japanese scientist; Bodnaryk et al., U.S. Pat. No. 5,955,082; cited from earlier work.
Data set [3] concerns Sitophilus oryzae. The data set is classed as in vivo. Particulars: for mortality / toxicity to the rice weevil (in words): used alone. Here is the method:
as §1, §2
Probit analysis (Polo-PC, LeOra Software, Berkeley, Calif., U.S.A.) was used to estimate the concentrations required to kill 50 and 90% of the population after seven days. For the experiments that used a single dose, the mean survival time was estimated using Kaplan-Meier survival analysis (SigmaStat 3.0, SPSS Inc, Chicago, Ill., U.S.A.).

Data set [4] deals with sugar taste receptor cells of the blowfly. The settings on record: Ahamed et al., 2000; cited from earlier work.
Data set [5] in a line: Stability in solution or on storage judged by TLC, HPLC and mass spectrometry. The data set is classed as physicochemical. The text has this: Samples containing soyasaponin VI, freshly prepared in 80% ethanol, could be shown to contain intact soyasaponin VI by HPLC/MS with electrospray ionization, by the appearance of the strong quasimolecular ion at mass1069. However, the samples were always contaminated with soyasaponin I (quasimolecular ion at 943).
The peptide of mass 3788 was of particular interest because its molecular weight was the same as that of PA1b described by Higgins et al. (1986). During RPC, the 3788 peptide was found in highest concentrations in the end fractions from silica gel flash chromatography of C8 with chloroform-water-methanol and then methanol as eluent (system 1 isolate).

Setting [6] is: C8 material as peptide source, total dose 1.6 mg/200 mg of flour.
Setting [7] is: peptide source AIEX YM3, total dose 1.6 mg/200 mg of flour (D-I: 0.8 mg/100 mg).
Setting [8] is: separate experiment, different batch of C8 material as peptide source, total dose 1.6 mg/200 mg of flour.

Take `C[C@@H]1O[C@@H](O[C@H]2[C@H](O[C@H]3[C@H](O[C@H]4CC[C@@]5(C)[C@@H](CC[C@]6(C)[C@@H]5CC=C5[C@@H]7CC(C)(C)C[C@@H](O)[C@]7(C)CC[C@]56C)[C@@]4(C)CO)O[C@H](C(=O)O)[C@@H](O)[C@@H]3O)O[C@H](CO)[C@H](O)[C@@H]2O)[C@H](O)[C@H](O)[C@H]1O` [Soyasaponin I, soyasaponin I]: in the data set with Sitophilus oryzae [1] (setting [6]), the “food consumption, peptide to saponin treatment ratio 1:1 (values in brackets)” value was “(27) % of control” and the “food consumption, peptide to saponin treatment ratio 1:9 (values in brackets)” value is listed as “(26) % of control”. Further, the “food consumption, peptide to saponin treatment ratio 9:1 (values in brackets)” value in the data set on Sitophilus oryzae [1] (C8 material as peptide source, total dose 1.6 mg/200 mg of flour (D-I: 0.8 mg/100 mg)) is listed as “(29) % of control”. The “food consumption in the rice weevil bioassay” value in the data set on Sitophilus oryzae [1] (0.43 mg dose) is given as 100%. Also, in the data set on Sitophilus oryzae [1] (Table 3, dose 1.6 mg/200 mg flour, listed as soyasaponin I (free acid)), the “food consumption (% of control)” value is 83 % of control and 114 % of control. Also, the “food consumption, initial treatment” value in the data set on Sitophilus oryzae [1] (Table 20, saponin alone, 1.6 mg/200 mg of flour) is given as 98 % of control. The “feeding, % of the control” value in the data set with Sitophilus oryzae [1] (highest concentration tested, 12.8%) is reported as 75 % of the control. In addition, in the data set on Sitophilus oryzae [1] (peptide source AIEX YM3, total dose 1.6 mg/200 mg of flour), the “food consumption, peptide to saponin treatment ratio 1:9” value is recorded as 16 % of control. In the data set with Sitophilus oryzae [1] (setting [7]), the “food consumption, peptide to saponin treatment ratio 1:1” value was 23 % of control and the “food consumption, peptide to saponin treatment ratio 9:1” value is on record as 24 % of control. For the same compound, the “antifeedant activity (in words)” value in the data set on Sitophilus oryzae [1] (rice weevil flour disk bioassay) is “inactive; also recorded: no significant reduction in feeding”. Further, the “Feeding as a percent of control (%)” value in the data set on Sitophilus oryzae [1] (saponin:peptide ratio 1:0 (saponin or soap alone), concentration 0.8%) was 92% and 98%. In addition, the “EC90 (%) to reduce feeding by 90%” value in the data set on Sitophilus oryzae [1] (saponin:peptide ratio 1:0, three days on treated wafers) is given as >>12 ^ %. In the data set on Sitophilus oryzae [1] (setting [8]), the “food consumption, peptide to saponin treatment ratio 1:1 (values in brackets)” value is “(33)^7 % of control”; the “food consumption, peptide to saponin treatment ratio 1:9 (values in brackets)” value is listed as “(42)^7 % of control”; the “food consumption, peptide to saponin treatment ratio 9:1 (values in brackets)” value is “(44)^7 % of control”. Besides, in the data set with Sitophilus oryzae [2], the “activity in the rice weevil bioassays (in words)” value was “nearly inactive”. Moreover, in the data set on Sitophilus oryzae [3] (saponin:peptide ratio 1:0, 0.8%, Kaplan-Meier), the “Mean survival time (days ± SE)” value is listed as 13.8 a days. The “LD90 (%)” value with Sitophilus oryzae [3] (saponin:peptide ratio 1:0, held three days on treated wafers, at 7 days) is >>12 ^ %. In the data set on Sitophilus oryzae [3], the “mortality / toxicity to the rice weevil (in words)” value is reported as “no mortality”. In addition, in the data set on Sitophilus oryzae [3] (listed as soyasaponin I), the “mortality / toxicity to the rice weevil (in words)” value is given as “no increase in mortality”.
Take `CC1=C(O)C(=O)C[C@H](O[C@@H]2CC(C)(C)C[C@H]3C4=CC[C@@H]5[C@@]6(C)CC[C@H](O[C@@H]7O[C@H](C(=O)O)[C@@H](O)[C@H](O)[C@H]7O[C@@H]7O[C@H](CO)[C@H](O)[C@H](O)[C@H]7O[C@@H]7O[C@@H](C)[C@H](O)[C@@H](O)[C@H]7O)[C@](C)(CO)[C@@H]6CC[C@@]5(C)[C@]4(C)CC[C@@]23C)O1` [Soyasaponin VI, soyasaponin VI]: in the data set on Sitophilus oryzae [1] (0.8 mg dose), the “food consumption in the rice weevil bioassay” value came out at 80%. Moreover, in data set [4], the “effect on sugar taste receptor cells (in words)” value is on record as “stimulate the sugar taste receptor cells”. Further, in data set [5], the “stability (in words)” value was “somewhat unstable in solution”.
